We go through 15 compounds from patent publication US5147878A, “Aminoalkoxyphenyl derivatives, process of preparation and compositions containing the same” (Sanofi, priority 1986, dated 1992).

Where a name gives a salt, the structure may show the parent alone. Bounds are passed on as bounds.

Experiment [1] deals with epinephrine-induced increase in blood-pressure (anti-α effect). Kind of experiment: Antiadrenergic properties: anti-α effect (reduction of epinephrine-induced hypertension). In kind it is in vivo. The arrangement: key to anti-α effect: +: for a reduction < 50%; ++: for a reduction ≥ 50%; +++: for a reduction sub-total (almost complete reduction). To be noted: dog. The protocol: (§1) The object of this test is to determine the capacity of the compounds of the invention for reducing the increase in epinephrine-induced increase in blood-pressure (anti-α effect) and the isoprenaline-induced acceleration in heart rate (anti-β effect), in dogs previously anaesthatized with pentobarbital and atropinized. For each dog, the dose of epinephrine (between 3 and 10 μg/kg) which induced a reproducible increase in the blood-pressure of approximately 133×10^2 Pa and the dose of isoprenaline (1 to 2 μg/kg) which induced a reproducible increase in the heart rate of approximately 70 beats/min. were first determined. The dose of epinephrine and of isoprenaline, determined in this manner, were injected alternately every ten minutes and, after two successive reference responses had been obtained, an amount of the test compound was administered intravenously. The percentage reduction in the hypertension induced by the test compound compared with the reference hypertension previously obtained (approximately 100 mm Hg) was recorded. In both cases, the results of the reduction in blood-pressure or in the heart rate have been expressed as follows: […]

Experiment [2] has as its system isoprenaline-induced acceleration in heart rate (anti-β effect). Description: Antiadrenergic properties: anti-β effect (reduction of isoprenaline-induced tachycardia). The format is in vivo. The arrangement: key to anti-β effect: +: for a reduction < 50%; ++: for a reduction ≥ 50%; +++: for a reduction sub-total (almost complete reduction). The settings on record: dog. The protocol:
as §1, with “the acceleration of the heart rate” for “the hypertension”, “reference tachycardia measured” for “reference hypertension”, “previously” for “previously obtained”, “(approximately 70 beats)” for “(approximately 100 mm Hg)”

Experiment [3] relates to isolated rat aorta. Description: Calcium inhibitory properties: contractile response to potassium-induced depolarization on isolated rat aorta. Set-up: species or system isolated organ, male Wistar rats. To be noted: for activity at 0.1 µM / activity at 0.01 µM / activity at 0.001 µM / activity at 1 µM / activity at 10 µM: Rattus norvegicus, 1 h, read-out: % of the maximum contractional effect; for activity at 0.1 µM: 10^-7 M; for activity at 0.01 µM: 10^-8 M; for activity at 0.001 µM: 10^-9 M; for activity at 1 µM: 10^-6 M; for activity at 10 µM: 10^-5 M. The essentials:
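Male Wistar rat aorta strips under 2 g tension in modified Krebs-bicarbonate at 37° C, gassed with CO2/O2; contraction induced by 100 mM KCl potassium-Krebs. Compound incubated 60 min before repeat K+ depolarization; response expressed as % of maximum contraction before compound.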

[4] abbreviates: Canis lupus familiaris, iv, 0.1 mg/kg i.v.
The mark [5] stands for this setting: Canis lupus familiaris, iv, 0.3 mg/kg i.v.
The mark [6] stands for this setting: Canis lupus familiaris, iv, 11.2 mg/kg i.v.
[7] abbreviates: Canis lupus familiaris, iv, 4.9 mg/kg i.v.
The mark [8] stands for this setting: Canis lupus familiaris, iv, 5.89 mg/kg i.v.

In the case of `COc1ccc(CNCCCOc2ccc(S(=O)(=O)c3c(C(C)C)cn4ccccc34)cc2)cc1OC` [Ex. 43, 2-Isopropyl-1-{4-[3-(3,4-dimethoxybenzylamino)propyloxy]benzenesulphonyl}indolizine], the anti-α effect result in experiment [1] (0.2 mg/kg i.v.) is on record as “+++”. Also, the anti-β effect entry in experiment [2] (0.2 mg/kg i.v.) is reported as “+++”. For the same compound, in experiment [3], the activity at 0.1 µM stood at 9.7%, the activity at 0.01 µM amounted to 58.4% and the activity at 0.001 µM was found to be 88.7%.
In experiment [1] (setting [4]), `CCCCN(CCCOc1ccc(S(=O)(=O)c2c(C(C)C)cn3ccccc23)cc1)CCc1ccc(OC)c(OC)c1` [Ex. 45, 2-Isopropyl-1-[4-{3-[N-n-butyl-N-(3,4-dimethoxy-β-phenethyl)amino]propyloxy}benzenesulphonyl]indolizine acid oxalate] yielded an inhibition in vivo at 0.1 mg/kg not below 50%. The compound also registered an inhibition in vivo at 0.1 mg/kg in experiment [2] (setting [4]) not below 50%. Further, in experiment [3], the activity at 0.1 µM came to 18.7%, the activity at 0.01 µM is 62.3% and the activity at 0.001 µM was 80.7%.
For the compound `COc1cccc(CCN(C)CCCOc2ccc(S(=O)(=O)c3c(C(C)C)cn4ccccc34)cc2)c1` [Ex. 46, 2-Isopropyl-1-[4-{3-[N-methyl-N-(3-methoxy-β-phenethyl)amino]propyloxy}benzenesulphonyl]indolizine acid oxalate], the anti-α effect entry in experiment [1] (0.1 mg/kg i.v.) is “+++”. Also, the anti-β effect result in experiment [2] (0.1 mg/kg i.v.) is on record as “+++”. In experiment [3], the activity at 0.1 µM is 4.3%, the activity at 0.01 µM worked out at 49.5% and the activity at 0.001 µM worked out at 78.1%.
As for `COc1ccc(CCN(C)CCCOc2ccc(S(=O)(=O)c3c(C(C)C)cn4ccccc34)cc2)cc1` [Ex. 47, 2-Isopropyl-1-[4-{3-[N-methyl-N-(4-methoxy-β-phenethyl)amino]propyloxy}benzenesulphonyl]indolizine acid oxalate], the inhibition in vivo at 0.3 mg/kg in experiment [1] (setting [5]) is not below 50%. The compound further came in with an inhibition in vivo at 0.3 mg/kg in experiment [2] (setting [5]) of less than 50%. For the same compound, in experiment [3], the activity at 0.1 µM amounted to 17.9%, the activity at 0.01 µM was 69.6% and the activity at 0.001 µM was 86.5%.
As to `CCCCN(CCCC)CC(O)COc1ccc(S(=O)(=O)c2c(C(C)C)cn3ccccc23)cc1.Cl` (centres unmarked) [Ex. 49, 2-isopropyl-1-{4-[3-(di-n-butylamino)-2-hydroxypropyloxy]-benzenesulphonyl}indolizine hydrochloride], the anti-α effect entry in experiment [1] (1 mg/kg i.v.) was “+++”. The compound also returned an inhibition in vivo at 1 mg/kg in experiment [2] (Canis lupus familiaris, iv, 1 mg/kg i.v.) not below 50%. Besides, in experiment [3], the activity at 1 µM is 5.4%, the activity at 0.1 µM turned out to be 12.8%, the activity at 0.01 µM amounted to 67.6% and the activity at 0.001 µM amounted to 80.2%.
Consider `CCCCN(CCCC)CCCOc1ccc(S(=O)(=O)c2c(C3CCCCC3)cn3ccccc23)cc1` [Ex. 51, 2-Cyclohexyl-1-{4-[3-(di-n-butylamino)propyloxy]-benzenesulphonyl}indolizin], for which, in experiment [1] (5.2 mg/kg i.v.), the anti-α effect entry is “+++”. The same compound registered an inhibition in vivo at 5.2 mg/kg in experiment [2] (Canis lupus familiaris, iv, 5.2 mg/kg i.v.) not below 50%. Further, in experiment [3], the activity at 1 µM was 58.9% and the activity at 0.1 µM is 80.4%.
For the compound `CCCCN(CCCC)CCCOc1ccc(Sc2c(C(C)C)cn3ccccc23)cc1.O=C(O)C(=O)O` [Ex. 52, 1-{4-[3-(di-n-butylamino)propyloxy]phenylthio}-2-isopropylindolizine oxalate], in experiment [1] (5.4 mg/kg i.v.), the anti-α effect entry is recorded as “+++”. The compound further had an inhibition in vivo at 5.4 mg/kg in experiment [2] (Canis lupus familiaris, iv, 5.4 mg/kg i.v.) not below 50%. In experiment [3], the activity at 10 µM came out at 69.2% and the activity at 1 µM is 81.2%.
On to `COc1ccc(CCN(C)CCCOc2ccc(Sc3c(C(C)C)cn4ccccc34)cc2)cc1OC` [Ex. 53, 1-[4-{3-[N-methyl-N-(3,4-dimethoxy-β-phenethyl)amino]propyloxy}phenylthio]-2-isopropylindolizine oxalate], for which the anti-α effect result in experiment [1] (6.1 mg/kg i.v.) is “+++”. In experiment [2] (Canis lupus familiaris, iv, 6.1 mg/kg i.v.), this compound gave an inhibition in vivo at 6.1 mg/kg of less than 50%. Also, in experiment [3], the activity at 10 µM is 59.8% and the activity at 1 µM was found to be 75.4%.
Consider `COc1ccc(CCN(C)CCCOc2ccc(S(=O)(=O)c3c(C(C)C)cc4ccccn34)cc2)cc1OC` [Ex. 55, 2-isopropyl-3-[4-{3-[N-methyl-N-(3,4-dimethoxy-β-phenethyl)amino]propyloxy}benzenesulphonyl]indolizine oxalate], for which the anti-α effect result in experiment [1] (0.13 mg/kg i.v.) is on record as “+++”. Also, the inhibition in vivo at 0.13 mg/kg in experiment [2] (Canis lupus familiaris, iv, 0.13 mg/kg i.v.) was not below 50%. For the same compound, in experiment [3], the activity at 0.1 µM was 9.5%, the activity at 0.01 µM is 34.1% and the activity at 0.001 µM stood at 68.7%.
Consider `COc1ccc(CCN(C)CCCOc2ccc(S(=O)(=O)c3ccccn3)cc2)cc1OC` [Ex. 59, 2-[4-{3-[N-methyl-N-(3,4-dimethoxy-β-phenethyl)amino]propyloxy}benzenesulphonyl]pyridine oxalate], for which, in experiment [1] (setting [6]), the inhibition in vivo at 11.2 mg/kg was not below 50%. This compound yielded an inhibition in vivo at 11.2 mg/kg in experiment [2] (setting [6]) not below 50%. In addition, in experiment [3], the activity at 1 µM turned out to be 81.7% and the activity at 0.1 µM amounted to 87.5%. The “% of the maximum contractional effect” value in experiment [3] (head printed "10^-" (exponent missing; first of three columns before 10^-6 M), 60 min) is listed as 33.3%.
Take `COc1ccc(CCN(C)CCCOc2ccc(S(=O)(=O)c3ccccc3)cc2)cc1OC` [Ex. 63, 4-{3-[N-methyl-N-(3,4-dimethoxy-β-phenethyl)amino]propyloxy}benzenesulphonylbenzene hydrochloride]: the anti-α effect result in experiment [1] (10.1 mg/kg i.v.) was “+++”. The compound also returned an inhibition in vivo at 10.1 mg/kg in experiment [2] (Canis lupus familiaris, iv, 10.1 mg/kg i.v.) not below 50%. Besides, in experiment [3], the activity at 1 µM stood at 21.4% and the activity at 0.1 µM amounted to 73.7%.
Consider `CCCCN(CCCC)CCCOc1ccc(S(=O)(=O)c2ccccc2)cc1` [Ex. 64, 4-[3-(di-n-butylamino)propyloxy]benzenesulphonylbenzene oxalate], for which the inhibition in vivo at 4.9 mg/kg in experiment [1] (setting [7]) is less than 50%. Also, in experiment [2] (setting [7]), the inhibition in vivo at 4.9 mg/kg was not below 50%. Further, in experiment [3], the activity at 1 µM came out at 32.4% and the activity at 0.1 µM turned out to be 85.3%.
Turning to `CCCCc1nc2ccccc2n1S(=O)(=O)c1ccc(OCCCN(CCCC)CCCC)cc1` [Ex. 65, 2-n-butyl-1-{4-[3-(di-n-butylamino)propyloxy]benzenesulphonyl}benzimidazolacid oxalate], the inhibition in vivo at 5.89 mg/kg in experiment [1] (setting [8]) and in experiment [2] (setting [8]) was not below 50% throughout. Further, the activity at 1 µM in experiment [3] amounted to 47.5%. The activity at 0.1 µM in experiment [3] amounted to 64.8%.
As for `COc1ccc(CCN(C)CCCOc2ccc(S(=O)(=O)c3c(C(C)C)oc4ccccc34)cc2)cc1OC` [Ex. 66, 2-isopropyl-3-[4-{3-[N-methyl-N-(3,4-dimethoxy-β-phenethylamino]propyloxy}benzenesulphonylbenzofuran oxalate], the anti-α effect entry in experiment [1] (0.1 mg/kg i.v.) was “+++”. Further, the inhibition in vivo at 0.1 mg/kg in experiment [2] (setting [4]) was less than 50%. Further, in experiment [3], the activity at 1 µM came to 2.6%, the activity at 0.1 µM was found to be 19.7%, the activity at 0.01 µM was found to be 60.4% and the activity at 0.001 µM came out at 81.7%.
Turning to `CCCc1oc2ccccc2c1S(=O)(=O)c1ccc(OCCCN(C)CCc2ccc(OC)c(OC)c2)cc1` [Ex. 67, 2-n-Propyl-3-[4-{3-[N-methyl-N-(3,4-dimethoxy-β-phenethyl)amino]propyloxy}benzenesulphonyl]benzofuran oxalate], the anti-α effect result in experiment [1] (1.3 mg/kg i.v.) was “+++”. In addition, the inhibition in vivo at 1.3 mg/kg in experiment [2] (Canis lupus familiaris, iv, 1.3 mg/kg i.v.) is less than 50%. Also, in experiment [3], the activity at 1 µM worked out at 9.3%, the activity at 0.1 µM amounted to 38.3% and the activity at 0.01 µM turned out to be 80.9%.
